Assay results published in US8946426B2, “Substituted bicyclic heterocyclic compounds as gamma secretase modulators” (Janssen Pharmaceuticals, Inc., priority 2009, dated 2015).

Test system: mouse Notch2
Experiment: Notch cell-based assay (N2-CHO/DL-CHO co-culture, Dual-Glo luciferase, NICD production)
Conditions: N2-CHO/DL-CHO co-culture 16 H; five-point curve 3 μM-0.3 nM
Description: The Notch cell-based assay was based on the interaction of Notch and its ligand in a co-culture system and utilized the Dual-Glo Luciferase Assay System (Promega) to monitor NICD production. Two stable cell lines, N2-CHO and DL-CHO, were established to express full-length mouse Notch2 and Delta respectively. Cells that expressed mouse Notch were also transfected with two plasmids, pTP1-Luc and pCMV-RLuc, to express firefly and Renilla luciferase. Expression of firefly luciferase was under the control of TP1 promoter that responded to NICD activation.
N2-CHO cells were seeded at 1×10^5/well in 24-well plates the day before transfection. On the second day, cells were double transfected with 3 μg/well pTP1-Luc (expressing firefly luciferase) and 0.3 ng/well pCMV-RLuc (expressing Renilla luciferase). After 6 H incubation, transfected N2-CHO cells were washed and DL-CHO cells (2×10^5 cells/well) were added.
Compounds were pre-mixed with DL-CHO cell suspension in a five-point curve. Typically, compound treatment was performed in duplicate with a serial 1:10 dilution (3 μM-0.3 nM) in DMSO. The final concentration of DMSO in a given culture was 1%. Controls included non-transfected cells and transfected cells treated with a GSI or DMSO only. Luciferase assays were performed after 16 H co-culture and compound treatment.
The luciferase assay was carried out according to manufacture's instructions. Briefly, cells were washed with PBS (Phosphate Buffered Saline), lysed with Passive Lysis Buffer (Promega), and incubated at room temperature for 20 min. Lysates were mixed with Dual-Glo Luciferase Reagent and the firefly luciferase activity was measured by reading the luminescence signal in the EnVision 2101 Multilabel reader. Dual-Glo Stop & Glo Reagent was then added to each well and the Renilla luciferase signal was measured.

Cc1ncc(-c2ccc(Nc3cccc4c3nc(-c3ccc(F)cc3)n4C(C)C)cn2)o1 [Compound 18]
average IC50 values from the Notch cell-based assay (luciferase assay readouts): non-inhibitory
